pKi: −log10 of the molar value. Several values for one entry are separate records, joined by “and”; a condition that tells them apart may be missing. Identical values can stand only once.

Sequence of M3 muscarinic receptor (P20309 whole entry): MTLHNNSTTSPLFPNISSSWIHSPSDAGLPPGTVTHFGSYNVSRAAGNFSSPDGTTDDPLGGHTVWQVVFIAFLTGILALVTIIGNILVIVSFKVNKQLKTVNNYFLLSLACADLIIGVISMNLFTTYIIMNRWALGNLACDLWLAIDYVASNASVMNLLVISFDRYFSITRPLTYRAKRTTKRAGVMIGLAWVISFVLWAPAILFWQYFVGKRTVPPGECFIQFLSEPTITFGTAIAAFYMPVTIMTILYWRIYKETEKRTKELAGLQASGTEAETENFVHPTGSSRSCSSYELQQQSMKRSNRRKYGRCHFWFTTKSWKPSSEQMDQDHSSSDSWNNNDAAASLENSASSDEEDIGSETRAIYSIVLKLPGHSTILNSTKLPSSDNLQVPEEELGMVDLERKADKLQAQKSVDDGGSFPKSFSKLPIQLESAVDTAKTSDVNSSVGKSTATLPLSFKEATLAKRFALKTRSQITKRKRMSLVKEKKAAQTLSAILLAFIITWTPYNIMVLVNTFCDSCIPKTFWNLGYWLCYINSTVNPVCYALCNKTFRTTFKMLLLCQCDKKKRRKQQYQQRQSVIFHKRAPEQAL
Sequence of hERG (Q12809 whole entry): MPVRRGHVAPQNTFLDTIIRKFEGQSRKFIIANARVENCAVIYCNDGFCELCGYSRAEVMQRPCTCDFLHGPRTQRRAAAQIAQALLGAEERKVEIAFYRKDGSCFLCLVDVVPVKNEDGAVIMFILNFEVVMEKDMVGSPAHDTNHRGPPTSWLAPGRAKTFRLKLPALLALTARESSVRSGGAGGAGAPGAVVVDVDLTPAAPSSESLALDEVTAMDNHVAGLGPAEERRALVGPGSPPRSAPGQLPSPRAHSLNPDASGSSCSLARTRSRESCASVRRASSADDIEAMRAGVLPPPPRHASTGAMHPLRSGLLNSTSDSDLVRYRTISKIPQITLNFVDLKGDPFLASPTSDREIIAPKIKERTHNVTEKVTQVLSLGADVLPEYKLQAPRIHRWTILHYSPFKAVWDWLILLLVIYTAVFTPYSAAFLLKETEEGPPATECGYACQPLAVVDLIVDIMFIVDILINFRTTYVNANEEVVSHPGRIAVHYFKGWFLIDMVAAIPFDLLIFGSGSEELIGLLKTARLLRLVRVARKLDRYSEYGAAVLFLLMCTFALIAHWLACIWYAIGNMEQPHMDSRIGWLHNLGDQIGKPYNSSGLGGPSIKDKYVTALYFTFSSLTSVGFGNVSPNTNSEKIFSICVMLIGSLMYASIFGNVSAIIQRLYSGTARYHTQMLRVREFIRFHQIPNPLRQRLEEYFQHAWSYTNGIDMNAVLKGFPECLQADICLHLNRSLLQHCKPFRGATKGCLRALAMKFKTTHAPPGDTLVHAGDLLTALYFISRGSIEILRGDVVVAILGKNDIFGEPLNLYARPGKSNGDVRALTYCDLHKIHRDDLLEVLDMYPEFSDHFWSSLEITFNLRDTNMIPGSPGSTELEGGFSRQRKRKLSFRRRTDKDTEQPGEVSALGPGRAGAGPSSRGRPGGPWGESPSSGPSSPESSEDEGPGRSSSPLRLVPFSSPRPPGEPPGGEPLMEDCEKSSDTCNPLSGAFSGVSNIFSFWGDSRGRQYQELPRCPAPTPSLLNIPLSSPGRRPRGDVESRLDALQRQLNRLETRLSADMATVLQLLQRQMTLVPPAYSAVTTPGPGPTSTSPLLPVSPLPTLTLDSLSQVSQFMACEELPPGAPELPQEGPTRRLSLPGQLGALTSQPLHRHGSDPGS
T1 sequence (P30546 whole entry): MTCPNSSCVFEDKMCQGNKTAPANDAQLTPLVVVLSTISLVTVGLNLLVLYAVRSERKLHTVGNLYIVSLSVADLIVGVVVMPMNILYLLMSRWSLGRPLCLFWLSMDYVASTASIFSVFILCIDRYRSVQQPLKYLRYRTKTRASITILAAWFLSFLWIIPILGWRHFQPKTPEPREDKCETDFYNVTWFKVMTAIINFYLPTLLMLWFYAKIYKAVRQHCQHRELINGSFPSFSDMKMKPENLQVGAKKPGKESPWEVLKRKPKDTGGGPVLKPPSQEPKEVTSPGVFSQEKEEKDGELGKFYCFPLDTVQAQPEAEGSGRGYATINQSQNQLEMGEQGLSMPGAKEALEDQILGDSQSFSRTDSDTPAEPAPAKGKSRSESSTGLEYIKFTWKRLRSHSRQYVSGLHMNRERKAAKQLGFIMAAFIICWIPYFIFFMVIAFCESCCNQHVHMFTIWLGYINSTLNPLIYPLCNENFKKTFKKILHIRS

The first data set addresses T1, H1 histamine receptor (Bos taurus, UniProt P30546).
T1 construct: the receptors were obtained from bovine cerebellar membrane tissue; from tissue; host or cells: bovine cerebellar membranes
The data set is described as follows: Histamine H1 competitive binding assay ([3H]pyrilamine). Also noted: species or system bovine. The note with it: read-out: Ki H1.
As to `O=C(O)C1(CCN2CCC(=C3c4ccc(Cl)cc4COc4ccccc43)CC2)CC1` [Compound 59b], the pKi is 7.18.

With `CC(C)(CCN1CCC(=C2c3ccccc3COc3ccccc32)CC1)C(=O)O` [Compound 70a], the negative-log Ki (pKi) is 7.43.

Take `CC(C)(CN1CCC(=C2c3ccc(Cl)cc3COc3ccccc32)CC1)C(=O)O` [Compound 51a]: the pKi was 7.58.

For `O=C(O)CN1CCC(=C2c3ccccc3COc3ccccc32)CC1` [Compound 71e], the pKi was 7.22.

The subject of another data set is male Wistar rats.
Test: not given
The format is in vivo. To be noted: 10 mg/kg oral. As to the method:
The Irwin screen can provide useful information on potential side effects of compounds on general physiological and behavioural functions. The screen was conducted by administering the test compounds orally in 0.25% aqueous methylcellulose using male Wistar rats, a frequently used species in such studies and for which background data are readily available.
The Irwin screen tests for numerous parameters in animals that have been administered the test compound. For example, the screen can include: in-cage effects, e.g., dispersion, respiratory rate, locomotor activity, restlessness, fighting, alertness, apathy, and exophthalmus; in-arena effects, e.g., transfer arousal, spatial locomotion, ptosis, startle, tail elevation, piloerection, touch escape, positional passivity, catalepsy, tighting reflex, visual placing, grip strength, pinna, corneal, pain response, and wire manoeuvre; parameters observed in handling, e.g., cyanosis, cutaneous blood flow, hypothermia, body tone, pupil size, light-pupil response, lacrimation, grooming, red staining, salivation, and provoked biting; general scores e.g., fearfulness, irritability, abnormal gait, abnormal body carriage, tremors, twitches, convulsions, bizarre behaviour, writhing, vocalisation, diarrhoea, number of defaecations, number of urinations, moribund, lethality, and abnormalities detected. Further details can be found in Irwin, S; Comprehensive observational assessment: I a. A systematic, quantitative procedure for assessing the behavioural and physiological state of the mouse.
Irwin screening of the disclosed sleep-inducing agents was performed by Covance (Princeton, N.J.) according to Irwin, above; Covance Standard Operating Procedure (current revision of SOP PHARM 8.10); relevant regulatory authority guidelines ICH (International Committee for Harmonization) Guideline (Topic S7A; CPMP/ICH/539/00) on Safety Pharmacology Studies for human pharmaceuticals (November 2000); and all procedures carried out on live animals were subject to the provisions of United Kingdom Law, in particular the Animals (Scientific Procedures) Act, 1986. which obliges all UK laboratories to maintain a local ethical review process to ensure that all animal use in the establishment is carefully considered and justified; that proper account is taken of all possibilities for reduction, refinement or replacement and that high standards of accommodation and care are achieved.
All test compound formulations were prepared on the day of dosing by Covance Harrogate Dispensary. The test compounds were formulated in 0.25% aqueous methylcellulose at the highest concentration required. Lower doses were obtained by serial dilution of the highest concentration using 0.25% aqueous methylcellulose. Dose levels are expressed in terms of the amount of test compound administered without regard to purity or active content. All formulations were stored at room temperature (nominally 10 to 30° C.) in sealed containers and protected from light.
An adequate number of male Wistar (Crl:WI(Glx/BRL/Han) BR:WH) rats were obtained from Charles River Ltd. (Margate, Kent, United Kingdom). The rats were approximately 5 weeks of age and weighed between 150 and 170 g on arrival. The animals were housed in groups of no more than six in polypropylene cages (33×15×13 cm) or (45×28×20 cm) with solid floors and Grade 10 woodflakes (Datesand Ltd., Cheshire, United Kingdom) as bedding. The cages were cleaned and dried before use. Aspen chew blocks were placed within the cages as a form of environmental enrichment. Routinely, holding rooms were maintained within acceptable limits for temperature and relative humidity (nominally 19 to 25° C. and 40% to 70%, respectively). These rooms were illuminated by fluorescent light for 12 hours out of each 24 hour cycle and designed to receive at least 15 fresh air changes per hour. […]
As to `CC(C)(CN1CCC(=C2c3ccc(Cl)cc3COc3ccccc32)CC1)C(=O)O` [Compound 51a], the “Irwin at mg/kg dose” value was “clean”.

Still in this data set, the particulars now being: 30 mg/kg oral.
For `CC(C)(CN1CCC(=C2c3ccc(Cl)cc3COc3ccccc32)CC1)C(=O)O` [Compound 51a], the “Irwin at mg/kg dose” value is on record as “some side effects”.

As for `O=C(O)CN1CCC(=C2c3ccccc3COc3ccccc32)CC1` [Compound 71e], the “Irwin at mg/kg dose” value is on record as “clean”.

The same data set, now with this note: 100 mg/kg oral.
With `CC(C)(CN1CCC(=C2c3ccc(Cl)cc3COc3ccccc32)CC1)C(=O)O` [Compound 51a], the “Irwin at mg/kg dose” value is “lethality”.

As for `O=C(O)CN1CCC(=C2c3ccccc3COc3ccccc32)CC1` [Compound 71e], the “Irwin at mg/kg dose” value is “many side effects”.

The data set is the same for the next values; noted with them: rat, in vivo.
Turning to `O=C(O)C1(CCN2CCC(=C3c4ccc(Cl)cc4COc4ccccc43)CC2)CC1` [Compound 59b], the “Irwin at mg/kg dose” value is reported as “clean”.

`CC(C)(CCN1CCC(=C2c3ccccc3COc3ccccc32)CC1)C(=O)O` [Compound 70a]: the “Irwin at mg/kg dose” value is “clean”.

In the case of `O=C(O)CN1CCC(=C2c3ccccc3COc3ccccc32)CC1` [Compound 71e], the “Irwin at mg/kg dose” value was 10, 30 clean; 100 many side effects.

A further data set addresses hERG (Homo sapiens, UniProt Q12809).
Test: not given
Details: not given
Take `O=C(O)CN1CCC(=C2c3ccccc3COc3ccccc32)CC1` [Compound 71e]: the “hERG at micromolar (% blocking of the hERG channel)” value was found to be 3.6% @ 1.

Staying with this data set, now noted: human, 1 µM, pH 7.4.
For the compound `CC(C)(CCN1CCC(=C2c3ccccc3COc3ccccc32)CC1)C(=O)O` [Compound 70a], the “hERG at micromolar (% blocking of the hERG channel)” value is 5.1% @ 1.

The same data set, now with this note: human, 10 µM, pH 7.4.
With `O=C(O)C1(CCN2CCC(=C3c4ccc(Cl)cc4COc4ccccc43)CC2)CC1` [Compound 59b], the “hERG at micromolar (% blocking of the hERG channel)” value stood at 28% @ 10.

Staying with this data set, now noted: human, pH 7.4.
On to `CC(C)(CN1CCC(=C2c3ccc(Cl)cc3COc3ccccc32)CC1)C(=O)O` [Compound 51a], for which the “hERG at micromolar (% blocking of the hERG channel)” value is recorded as 40.6%.

In another data set the test system is adult male Wistar rats. The experiment in a line: SCORE-2000 sleep-wakefulness, locomotor activity and body temperature monitoring. The format is in vivo, rat. To be noted: dose 3 mg/kg oral at CT-18.
Consider `CC(C)(CN1CCC(=C2c3ccc(Cl)cc3COc3ccccc32)CC1)C(=O)O` [Compound 51a], for which the LUSB stood at 8.8 min and the NREM turned out to be 32.1 min.

Still in this data set, the particulars now being: dose 10 mg/kg oral at CT-18.
For the compound `O=C(O)C1(CCN2CCC(=C3c4ccc(Cl)cc4COc4ccccc43)CC2)CC1` [Compound 59b], the LUSB amounted to 12.8 min and the NREM is 42.4 min.

`CC(C)(CCN1CCC(=C2c3ccccc3COc3ccccc32)CC1)C(=O)O` [Compound 70a] came in with an LUSB of 3.7 min and an NREM of 13.2 min.

In turn, `CC(C)(CN1CCC(=C2c3ccc(Cl)cc3COc3ccccc32)CC1)C(=O)O` [Compound 51a] showed an LUSB of 18.2 min and an NREM of 60.3 min.

The same data set, now with this note: dose 30 mg/kg oral at CT-18.
In turn, `O=C(O)C1(CCN2CCC(=C3c4ccc(Cl)cc4COc4ccccc43)CC2)CC1` [Compound 59b] had an LUSB of 6.1 min and an NREM of 23.1 min.

Take `CC(C)(CCN1CCC(=C2c3ccccc3COc3ccccc32)CC1)C(=O)O` [Compound 70a]: the LUSB turned out to be 6 min and the NREM is 33.6 min.

Turning to `CC(C)(CN1CCC(=C2c3ccc(Cl)cc3COc3ccccc32)CC1)C(=O)O` [Compound 51a], the LUSB was found to be 6.3 min and the NREM was 49.3 min.

In the case of `O=C(O)CN1CCC(=C2c3ccccc3COc3ccccc32)CC1` [Compound 71e], the LUSB is 4.1 min and the NREM amounted to 34.5 min.

Still in this data set, the particulars now being: dose 45 mg/kg oral at CT-18.
For the compound `CC(C)(CCN1CCC(=C2c3ccccc3COc3ccccc32)CC1)C(=O)O` [Compound 70a], the LUSB stood at 12.1 min and the NREM was 29.3 min.

The next data set addresses T2, M2 muscarinic receptor (Homo sapiens, UniProt P08172).
T2 sequence (P08172 1-466): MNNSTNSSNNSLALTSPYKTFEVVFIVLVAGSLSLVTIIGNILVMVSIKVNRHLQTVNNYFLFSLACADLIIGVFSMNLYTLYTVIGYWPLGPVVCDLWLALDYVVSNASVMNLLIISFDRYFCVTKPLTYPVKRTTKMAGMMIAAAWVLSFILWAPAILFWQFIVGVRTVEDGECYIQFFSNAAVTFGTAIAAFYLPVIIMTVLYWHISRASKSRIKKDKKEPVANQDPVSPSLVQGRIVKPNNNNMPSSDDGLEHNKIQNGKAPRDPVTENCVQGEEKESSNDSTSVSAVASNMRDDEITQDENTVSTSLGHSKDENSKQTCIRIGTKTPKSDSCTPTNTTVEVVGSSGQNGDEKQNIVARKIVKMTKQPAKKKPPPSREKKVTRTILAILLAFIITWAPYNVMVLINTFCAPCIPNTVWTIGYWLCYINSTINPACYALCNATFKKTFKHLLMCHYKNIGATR
The experiment in a line: Muscarinic M2 binding assay. The arrangement: purchased PerkinElmer, Inc., Wellesley, Mass; host or cells: CHO cells. To be noted: read-out: Ki M2.
On to `O=C(O)C1(CCN2CCC(=C3c4ccc(Cl)cc4COc4ccccc43)CC2)CC1` [Compound 59b], for which the negative-log Ki (pKi) was below 5.00.

Take `CC(C)(CCN1CCC(=C2c3ccccc3COc3ccccc32)CC1)C(=O)O` [Compound 70a]: the pKi is 5.48 and 5.87.

In the case of `CC(C)(CN1CCC(=C2c3ccc(Cl)cc3COc3ccccc32)CC1)C(=O)O` [Compound 51a], the pKi is below 5.00.

With `O=C(O)CN1CCC(=C2c3ccccc3COc3ccccc32)CC1` [Compound 71e], the pKi was 5.29.

The target in another data set is T3, M1 muscarinic receptor (Homo sapiens, UniProt P11229).
T3 sequence (P11229 1-460): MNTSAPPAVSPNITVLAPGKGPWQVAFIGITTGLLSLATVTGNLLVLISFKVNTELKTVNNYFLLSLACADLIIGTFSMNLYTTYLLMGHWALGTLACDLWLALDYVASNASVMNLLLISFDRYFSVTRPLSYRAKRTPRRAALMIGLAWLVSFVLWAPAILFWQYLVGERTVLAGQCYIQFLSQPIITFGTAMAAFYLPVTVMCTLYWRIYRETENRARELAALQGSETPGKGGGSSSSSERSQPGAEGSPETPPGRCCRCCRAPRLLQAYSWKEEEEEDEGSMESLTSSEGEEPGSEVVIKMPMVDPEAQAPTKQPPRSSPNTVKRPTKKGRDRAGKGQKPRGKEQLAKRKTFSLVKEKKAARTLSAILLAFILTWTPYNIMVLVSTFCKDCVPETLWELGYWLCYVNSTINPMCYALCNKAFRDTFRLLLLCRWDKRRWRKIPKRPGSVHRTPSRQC
The experiment in a line: Muscarinic M1 binding assay ([3H]-scopolamine, N-methyl chloride). To be noted: read-out: Ki M1. Also noted: purchased PerkinElmer, Inc., Wellesley, Mass; host or cells: CHO cells.
For the compound `O=C(O)C1(CCN2CCC(=C3c4ccc(Cl)cc4COc4ccccc43)CC2)CC1` [Compound 59b], the pKi was below 5.00.

Consider `CC(C)(CCN1CCC(=C2c3ccccc3COc3ccccc32)CC1)C(=O)O` [Compound 70a], for which the pKi was 6.09.

Consider `CC(C)(CN1CCC(=C2c3ccc(Cl)cc3COc3ccccc32)CC1)C(=O)O` [Compound 51a], for which the pKi is below 5.00.

With `O=C(O)CN1CCC(=C2c3ccccc3COc3ccccc32)CC1` [Compound 71e], the pKi is 4.92.

A further data set concerns the target M3 muscarinic receptor (Homo sapiens, UniProt P20309). The data set is described as follows: Muscarinic M3 binding assay. The arrangement: purchased PerkinElmer, Inc., Wellesley, Mass; host or cells: CHO cells. The note with it: read-out: Ki M3.
Turning to `O=C(O)C1(CCN2CCC(=C3c4ccc(Cl)cc4COc4ccccc43)CC2)CC1` [Compound 59b], the negative-log Ki (pKi) was below 5.00.

As to `CC(C)(CN1CCC(=C2c3ccc(Cl)cc3COc3ccccc32)CC1)C(=O)O` [Compound 51a], the pKi was below 5.00.

As for `O=C(O)CN1CCC(=C2c3ccccc3COc3ccccc32)CC1` [Compound 71e], the pKi was below 5.00.

As a reminder, the pKi is −log10 of the Ki, conventionally taken in molar units.

(Values after US7326721B2 (Hypnion, Inc., priority 2003, dated 2008).)
